Where two headings read alike, the source gives them in different places.
Tests used:
[1] = test system: A375-NRAS^Q61K cells; assay: CTGlo Cell Viability Assay, A375-NRAS^Q61K (A375.11) cells, 96 hours; format: cell-based, human; conditions: A375.11 (A375-NRAS^Q61K) cells; for CTGlo A375.11 96 hours Emax / Emax: lowest % viability achieved
Outline: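 A375 cells carrying BRAF V600E and NRAS Q61K were seeded at 250 cells/well with a 10-point half-log dose series (max 10 μM final). After 96 h at 37 °C, viability was read as ATP luminescence (CellTiter-Glo), background-subtracted and normalized to DMSO (100%). GI50 from 4-parameter fit; Emax is the lowest % viability.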

[2] = target: T1, BRAF V600E (Homo sapiens, UniProt P15056+Q96SW2, V600E); assay: BRAF V600E HiBiT Degradation Assay; format: cell-based
T1 construct: knock-in of the HiBiT tag to the endogenous BRAF V600E locus; host or cells: A375.10 (A375 clonal line, CRISPR HiBiT knock-in at the endogenous BRAF V600E locus)
Outline: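 Endogenous HiBiT knock-in on BRAF V600E in A375 cells (clone A375.10); 11-point half-log series, top 10 μM, 2, 6 or 24 h at 37° C. Lytic HiBiT luminescence, background-subtracted, normalized to DMSO; 4-parameter fit gives DC50, Emax (residual protein) and IP (inflection point).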

[3] = A375.10 cells, BRAF V600E, 2 hours, inflection point, read-out: HiBiT-Degradation A375.10 BRAF 2 hours IP
[4] = A375.10 cells, BRAF V600E, 2 hours, read-out: HiBiT-Degradation A375.10 BRAF 2 hours DC50
[5] = A375.10 cells, BRAF V600E, 2 hours, residual protein remaining
[6] = A375.10 cells, BRAF V600E, 2 hours, residual protein remaining, read-out: HiBiT-Degradation A375.10 BRAF 2 hours Emax
[7] = A375.10 cells, HiBiT, BRAF V600E, 24 hours, read-out: HiBiT-Degradation A375.10 BRAF 24 hours DC50
[8] = A375.10 cells, HiBiT, BRAF V600E, 24 hours, read-out: HiBiT-Degradation A375.10 BRAF 24 hours Emax
[9] = A375.10 cells, HiBiT, BRAF V600E, 24 hours, read-out: HiBiT-Degradation A375.10 BRAF 24 hours IP

T1 sequence (P15056 whole entry V600E): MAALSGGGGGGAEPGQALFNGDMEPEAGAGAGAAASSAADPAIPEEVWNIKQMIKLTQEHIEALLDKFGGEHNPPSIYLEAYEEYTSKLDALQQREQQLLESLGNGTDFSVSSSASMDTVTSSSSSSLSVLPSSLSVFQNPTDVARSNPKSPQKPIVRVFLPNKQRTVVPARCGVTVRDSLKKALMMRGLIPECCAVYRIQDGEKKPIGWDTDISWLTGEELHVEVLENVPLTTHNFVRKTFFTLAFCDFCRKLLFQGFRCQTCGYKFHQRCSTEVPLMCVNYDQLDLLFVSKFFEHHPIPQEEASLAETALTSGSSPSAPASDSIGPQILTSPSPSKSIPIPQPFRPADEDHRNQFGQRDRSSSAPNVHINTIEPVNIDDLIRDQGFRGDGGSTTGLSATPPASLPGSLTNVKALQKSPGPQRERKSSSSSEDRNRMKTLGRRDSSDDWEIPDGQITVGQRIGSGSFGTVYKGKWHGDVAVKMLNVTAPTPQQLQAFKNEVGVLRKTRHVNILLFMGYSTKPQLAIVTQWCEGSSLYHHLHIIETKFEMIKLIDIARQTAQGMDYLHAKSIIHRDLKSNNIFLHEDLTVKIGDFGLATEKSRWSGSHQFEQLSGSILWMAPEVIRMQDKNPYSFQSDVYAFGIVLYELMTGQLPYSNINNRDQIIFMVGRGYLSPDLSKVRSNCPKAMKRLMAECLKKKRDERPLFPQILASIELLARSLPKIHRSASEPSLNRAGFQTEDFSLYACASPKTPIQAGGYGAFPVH
T1 sequence (Q96SW2 whole entry): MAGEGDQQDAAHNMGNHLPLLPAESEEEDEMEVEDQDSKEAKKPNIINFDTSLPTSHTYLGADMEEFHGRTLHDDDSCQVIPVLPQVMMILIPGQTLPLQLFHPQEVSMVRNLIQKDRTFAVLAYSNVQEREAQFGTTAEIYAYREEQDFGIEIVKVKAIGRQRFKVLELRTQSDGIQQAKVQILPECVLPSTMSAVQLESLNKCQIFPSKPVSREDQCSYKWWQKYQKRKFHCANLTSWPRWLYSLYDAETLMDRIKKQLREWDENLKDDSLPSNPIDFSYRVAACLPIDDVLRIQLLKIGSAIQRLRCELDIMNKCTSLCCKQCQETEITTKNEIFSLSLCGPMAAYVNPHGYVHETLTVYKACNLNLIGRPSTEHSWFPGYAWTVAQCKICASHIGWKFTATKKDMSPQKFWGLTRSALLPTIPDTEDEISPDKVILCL
T1 sequence (Q16531 whole entry partner): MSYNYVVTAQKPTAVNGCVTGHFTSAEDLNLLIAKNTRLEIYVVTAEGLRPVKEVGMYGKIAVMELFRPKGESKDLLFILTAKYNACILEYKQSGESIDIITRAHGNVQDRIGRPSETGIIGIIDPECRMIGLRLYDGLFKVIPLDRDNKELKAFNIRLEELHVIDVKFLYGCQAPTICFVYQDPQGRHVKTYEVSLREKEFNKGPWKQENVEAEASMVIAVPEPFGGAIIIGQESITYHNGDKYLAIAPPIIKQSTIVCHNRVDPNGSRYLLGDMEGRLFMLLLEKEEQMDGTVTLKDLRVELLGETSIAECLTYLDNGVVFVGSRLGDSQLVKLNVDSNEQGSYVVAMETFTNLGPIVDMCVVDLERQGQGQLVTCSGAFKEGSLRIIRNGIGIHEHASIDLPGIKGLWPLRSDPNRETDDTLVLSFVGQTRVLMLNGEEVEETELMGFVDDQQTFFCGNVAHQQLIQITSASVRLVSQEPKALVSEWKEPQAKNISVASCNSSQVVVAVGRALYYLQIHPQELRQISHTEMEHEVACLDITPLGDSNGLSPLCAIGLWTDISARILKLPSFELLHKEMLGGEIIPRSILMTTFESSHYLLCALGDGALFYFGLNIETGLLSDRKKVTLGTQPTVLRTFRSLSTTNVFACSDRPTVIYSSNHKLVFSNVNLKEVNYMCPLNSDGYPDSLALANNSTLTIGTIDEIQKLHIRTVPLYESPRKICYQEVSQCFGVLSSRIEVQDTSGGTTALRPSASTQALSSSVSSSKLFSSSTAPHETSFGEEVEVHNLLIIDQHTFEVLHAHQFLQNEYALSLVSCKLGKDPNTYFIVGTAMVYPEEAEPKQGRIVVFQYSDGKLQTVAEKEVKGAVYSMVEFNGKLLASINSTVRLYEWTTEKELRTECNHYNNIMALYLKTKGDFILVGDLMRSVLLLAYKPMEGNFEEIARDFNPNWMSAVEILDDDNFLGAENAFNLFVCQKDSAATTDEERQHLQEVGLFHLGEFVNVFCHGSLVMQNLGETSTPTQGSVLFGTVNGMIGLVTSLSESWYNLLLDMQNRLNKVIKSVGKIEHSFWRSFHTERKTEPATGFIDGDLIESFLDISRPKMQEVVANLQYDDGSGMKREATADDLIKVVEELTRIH

| SMILES | GI50 [1] | CTGlo A375.11 96 hours Emax [1] | DC50 [2, 3] | DC50 [2, 4] | HiBiT-Degradation A375.10 BRAF 2 hours Emax [2, 5] | GI50 ([1]; Homo sapiens, 96 h) | Emax ([1]; Homo sapiens, 96 h) | Emax [2, 6] | DC50 ([2]; read-out: HiBiT-Degradation A375.10 BRAF 2 hours DC50, A375.10 cells, BRAF V600E, 2 hours) | DC50 ([2]; read-out: HiBiT-Degradation A375.10 BRAF 2 hours IP, A375.10 cells, BRAF V600E, 2 hours, inflection point) | DC50 [2, 7] | Emax [2, 8] | DC50 [2, 9] | Emax ([2]; read-out: HiBiT-Degradation A375.10 BRAF 2 hours Emax, A375.10 cells, BRAF V600E, 2 hours, residual protein remaining) |
| --- | --- | --- | --- | --- | --- | --- | --- | --- | --- | --- | --- | --- | --- | --- |
| CN(CCO)S(=O)(=O)Nc1ccc(F)c(Oc2ccc3ncn(C4CC5(CCN(C6CCC(c7ccc(NC8CCC(=O)NC8=O)cc7F)CC6)CC5)C4)c(=O)c3c2)c1C#N (single isomer, unassigned) [Compound 80, 6-[2-cyano-6-fluoro-3-[[2-hydroxyethyl(methyl)sulfamoyl]amino]phenoxy]-3-[7-[4-[4-[(2,6-dioxo-3-piperidyl)amino]-2-fluoro-phenyl]cyclohexyl]-7-azaspiro[3.5]nonan-2-yl]-4-oxo-quinazoline] | > 10 µM | ** (<90% and >50%) | < 1 µM | > 10 µM | ** (<90% and >50%) | – | – | – | – | – | – | – | – | – |
| CN(CCO)S(=O)(=O)Nc1ccc(F)c(Oc2ccc3ncn([C@H]4COC5(CCN([C@H]6C[C@@H](c7cc8c(cc7F)c(N7CCC(=O)NC7=O)nn8C)C6)CC5)C4)c(=O)c3c2)c1C#N [Compound 165, (3R)-3-[6-[2-cyano-6-fluoro-3-[[2-hydroxyethyl(methyl)sulfamoyl]amino]phenoxy]-4-oxo-quinazolin-3-yl]-8-[3-[3-(2,4-dioxohexahydropyrimidin-1-yl)-5-fluoro-1-methyl-indazol-6-yl]cyclobutyl]-1-oxa-8-azaspiro[4.5]decane] | – | – | < 1 µM | < 1 µM | – | > 10 µM | 50 to 90% | 50 to 90% | – | – | – | – | – | – |
| CCN(C)S(=O)(=O)Nc1ccc(F)c(Oc2ccc3ncn(C4CC5(CCC(N6CC[C@@H](c7cc8c(cc7F)c(N7CCC(=O)NC7=O)nn8C)C(F)(F)C6)CC5)C4)c(=O)c3c2)c1C#N (stereo partly drawn) [Compound 225, 6-[2-cyano-3-[[ethyl(methyl)sulfamoyl]amino]-6-fluoro-phenoxy]-3-[7-[(4S)-4-[3-(2,4-dioxohexahydropyrimidin-1-yl)-5-fluoro-1-methyl-indazol-6-yl]-3,3-difluoro-1-piperidyl]spiro[3.5]nonan-2-yl]-4-oxo-quinazoline] | – | – | < 1 µM | < 1 µM | – | < 1 µM | < 50% | < 50% | – | – | – | – | – | – |
| CO[C@@H]1CCN(S(=O)(=O)Nc2ccc(F)c(Oc3ccc4ncc(C5CC6(CCN(C7CCC(c8cc9c(cc8F)c(N8CCC(=O)NC8=O)nn9C)CC7)CC6)C5)nc4c3)c2C#N)C1 (single isomer, unassigned) [Compound 284] | – | – | < 1 µM | < 1 µM | – | < 1 µM | < 50% | < 50% | – | – | – | – | – | – |
| CCN(C)S(=O)(=O)Nc1ccc(F)c(Oc2ccc3ncc(C4CC5(CCN(C6CCN(c7cc8c(cc7F)c(N7CCC(=O)NC7=O)nn8C)CC6)CC5)C4)nc3c2)c1C#N [Compound 256, 7-[2-cyano-3-[[ethyl(methyl)sulfamoyl]amino]-6-fluoro-phenoxy]-2-[7-[1-[3-(2,4-dioxohexahydropyrimidin-1-yl)-5-fluoro-1-methyl-indazol-6-yl]-4-piperidyl]-7-azaspiro[3.5]nonan-2-yl]quinoxaline] | – | – | < 1 µM | < 1 µM | – | < 1 µM | 50 to 90% | < 50% | – | – | – | – | – | – |
| CN(CCO)S(=O)(=O)Nc1ccc(F)c(Oc2ccc3ncc(C4CC5(C4)CN(C4CCC(c6cc7c(cc6F)c(N6CCC(=O)NC6=O)nn7C)CC4)C5)nc3c2)c1C#N (single isomer, unassigned) [Compound 322, 7-[2-cyano-6-fluoro-3-[[2-hydroxyethyl(methyl)sulfamoyl]amino]phenoxy]-2-[2-[4-[3-(2,4-dioxohexahydropyrimidin-1-yl)-5-fluoro-1-methyl-indazol-6-yl]cyclohexyl]-2-azaspiro[3.3]heptan-6-yl]quinoxaline] | > 10 µM | ** (<90% and >50%) | < 1 µM | 1 to 10 µM | ** (<90% and >50%) | – | – | – | – | – | – | – | – | – |
| CC(C)S(=O)(=O)Nc1ccc(F)c(Oc2ccc3ncc(C4CC5(CCN(C6CCC(c7cc8c(cc7F)c(N7CCC(=O)NC7=O)nn8C)CC6)CC5)C4)nc3c2)c1C#N (single isomer, unassigned) [Compound 249, N-[2-cyano-3-[3-[7-[4-[3-(2,4-dioxohexahydropyrimidin-1-yl)-5-fluoro-1-methyl-indazol-6-yl]cyclohexyl]-7-azaspiro[3.5]nonan-2-yl]quinoxalin-6-yl]oxy-4-fluoro-phenyl]propane-2-sulfonamide] | < 1 µM | ** (<90% and >50%) | < 1 µM | < 1 µM | *** (<=50%) | – | – | – | – | – | – | – | – | – |
| CO[C@@H]1CCN(S(=O)(=O)Nc2ccc(F)c(Oc3ccc4ncc(C5CC6(CCN(C7CC8(C7)CN(c7cc9c(cc7F)c(N7CCC(=O)NC7=O)nn9C)C8)CC6)C5)nc4c3)c2C#N)C1 (stereo partly drawn) [Compound 278, (3R)-N-[2-cyano-3-[3-[7-[2-[3-(2,4-dioxohexahydropyrimidin-1-yl)-5-fluoro-1-methyl-indazol-6-yl]-2-azaspiro[3.3]heptan-6-yl]-7-azaspiro[3.5]nonan-2-yl]quinoxalin-6-yl]oxy-4-fluoro-phenyl]-3-methoxy-pyrrolidine-1-sulfonamide] | – | – | – | – | – | < 1 µM | < 50% | < 50% | < 1 µM | < 1 µM | – | – | – | – |
| CCN(C)S(=O)(=O)Nc1ccc(F)c(Oc2ccc3ncn(C4CC5(C4)CN(C4CCC(c6cc7c(cc6F)c(N6CCC(=O)NC6=O)nn7C)CC4)C5)c(=O)c3c2)c1C#N (single isomer, unassigned) [Compound 203, 6-[2-cyano-3-[[ethyl(methyl)sulfamoyl]amino]-6-fluoro-phenoxy]-3-[2-[4-[3-(2,4-dioxohexahydropyrimidin-1-yl)-5-fluoro-1-methyl-indazol-6-yl]cyclohexyl]-2-azaspiro[3.3]heptan-6-yl]-4-oxo-quinazoline] | > 10 µM | – | < 1 µM | < 1 µM | – | – | 50 to 90% | – | – | – | < 1 µM | < 50% | < 1 µM | < 50% |
| CCN(C)S(=O)(=O)Nc1ccc(F)c(Oc2ccc3ncn(C4CC5(CCN(CC6CCN(c7cc8c(cc7F)c(N7CCC(=O)NC7=O)nn8C)CC6)CC5)C4)c(=O)c3c2)c1C#N [Compound 255, 6-[2-cyano-3-[[ethyl(methyl)sulfamoyl]amino]-6-fluoro-phenoxy]-3-[7-[[1-[3-(2,4-dioxohexahydropyrimidin-1-yl)-5-fluoro-1-methyl-indazol-6-yl]-4-piperidyl]methyl]-7-azaspiro[3.5]nonan-2-yl]-4-oxo-quinazoline] | – | – | < 1 µM | < 1 µM | – | > 10 µM | 50 to 90% | 50 to 90% | – | – | – | – | – | – |
| CCN(C)S(=O)(=O)Nc1ccc(F)c(Oc2ccc3ncc(C4CC5(C4)CN(C4CCC(c6cc7c(cc6F)c(N6CCC(=O)NC6=O)nn7C)CC4)C5)nc3c2)c1C#N (single isomer, unassigned) [Compound 297, 7-[2-cyano-3-[[ethyl(methyl)sulfamoyl]amino]-6-fluoro-phenoxy]-2-[2-[4-[3-(2,4-dioxohexahydropyrimidin-1-yl)-5-fluoro-1-methyl-indazol-6-yl]cyclohexyl]-2-azaspiro[3.3]heptan-6-yl]quinoxaline] | – | – | < 1 µM | 1 to 10 µM | – | 1 to 10 µM | 50 to 90% | 50 to 90% | – | – | < 1 µM | < 50% | < 1 µM | – |
| CCN(C)S(=O)(=O)Nc1ccc(F)c(Oc2ccc3ncc(OCC4(F)CCN(C5CCC(c6cc7c(cc6F)c(N6CCC(=O)NC6=O)nn7C)CC5)CC4)nc3c2)c1C#N (single isomer, unassigned) [Compound 228, 7-[2-cyano-3-[[ethyl(methyl)sulfamoyl]amino]-6-fluoro-phenoxy]-2-[[1-[4-[3-(2,4-dioxohexahydropyrimidin-1-yl)-5-fluoro-1-methyl-indazol-6-yl]cyclohexyl]-4-fluoro-4-piperidyl]methoxy]quinoxaline] | – | – | < 1 µM | 1 to 10 µM | – | 1 to 10 µM | 50 to 90% | 50 to 90% | – | – | – | – | – | – |

Source: patent US20260297060A1, “COMPOUNDS FOR THE DEGRADATION OF MUTANT BRAF” (C4 THERAPEUTICS, INC., priority 2023, published 2026)
